What all share (type): in vivo, mice
Assay [1] is described as follows: Plasma cholesterol, triglyceride, NEFA and glycemia after myocardial ischaemia-reperfusion. To be noted: for Triglyceride / Glycemia Post-Reperfusion / Total Cholesterol / Glycemia Before Ischemia: 300 μg/kg/day for 2 weeks; for Triglyceride: mean ± S.E.M.; for Glycemia Post-Reperfusion / Total Cholesterol / Glycemia Before Ischemia: mean ± S.E.M. (n). From the text: Animals. CD36^−/− mice were generated by targeted homologous recombination and backcrossed six times to C57BI/6. Wild-type control littermates (CD36^+/+) were bred from the same cross and were therefore of identical genetic background [Febbraio et al., 2000]. Male mice, aged 23 (±1) weeks, were used for experiments. They were fed standard chow (#5075, Charles Rivers, Saint-Constant, Québec, Canada) and water ad libitum, and housed singly during treatment periods (2 or 10 weeks). Daily pharmacological treatments with 300 μg/kg of EP 80317 or CP1A(IV) or vehicle (0.9% NaCl) were done by subcutaneous (s.c.) injections.
Experimental model of IHD: Transient left coronary artery ligation in vivo. Mice were subjected to a transient LCAL surgery as described before, with minor modifications [Tarnayski et al., 2004]. Mice were injected i.p. with buprenorphine (0.05 mg/kg) and placed in an induction chamber with inhalation anesthesia comprised of 3% isoflurane mixed with 100% oxygen. Mice were intubated with a blunt ended 20-gauge catheter into the trachea via the mouth and mechanically ventilated at a tidal volume of 7 ml/kg at 130 respirations/min with a MiniVent™ mouse ventilator (model 845, Harvard Apparatus, Saint-Laurent, QC, Canada). Anesthesia was maintained with 1.5-2% isoflurane and the animals were kept warm using electrical heating pads during the surgical procedure. The chest was opened by a horizontal incision through the skin and muscle layers at the third intercostal space exposing the left side of the heart. […] Visual blanching distal to the coronary occlusion confirmed myocardial ischaemia. Lidocaine (6 mg/kg) was administered i.p. just following occlusion and prior to reperfusion. After 30 minutes, the PE10 tubing was removed allowing reperfusion. The lungs were reinflated and the chest wound closed layer by layer before extubation. […] Hearts were immediately frozen at −80° C. unless otherwise stated. […]
Plasma and tissue assays. Plasma insulin, triglyceride (TG) and NEFA levels were measured as previously described [Menard et al., 2009]. In vitro lipolysis was prevented by collecting blood in the presence of 40 mM Orlistat (Calbiochem, San Diego, Calif., USA) and centrifuging rapidly. Plasma and tissue lipids were extracted according to the method described by Folch et al. [Folch et al., 1957]. The non-metabolized fraction of [^18F]-FTHA in plasma was determined using thin-layer chromatography from blood samples taken 2, 3, 5, 10, and 30 min after FTHA injection, and the metabolite corrected plasma curve was calculated by linear interpolation and used to correct the plasma input function (modified from [Ci et al., 2006]). Myocardial mitochondria were extracted with measurement of GDH activity to correct for extraction efficiency [Menard et al., 2009].

The test system of the next assay is AMPK. The assay can be described thus: Western blot of left ventricle: phosphorylated AMPK to total AMPK. The protocol: (§1) Experimental model of IHD: Transient left coronary artery ligation in vivo. Mice were subjected to a transient LCAL surgery as described before, with minor modifications [Tarnayski et al., 2004]. Mice were injected i.p. with buprenorphine (0.05 mg/kg) and placed in an induction chamber with inhalation anesthesia comprised of 3% isoflurane mixed with 100% oxygen. Mice were intubated with a blunt ended 20-gauge catheter into the trachea via the mouth and mechanically ventilated at a tidal volume of 7 ml/kg at 130 respirations/min with a MiniVent™ mouse ventilator (model 845, Harvard Apparatus, Saint-Laurent, QC, Canada). Anesthesia was maintained with 1.5-2% isoflurane and the animals were kept warm using electrical heating pads during the surgical procedure. The chest was opened by a horizontal incision through the skin and muscle layers at the third intercostal space exposing the left side of the heart. […] Visual blanching distal to the coronary occlusion confirmed myocardial ischaemia. Lidocaine (6 mg/kg) was administered i.p. just following occlusion and prior to reperfusion. After 30 minutes, the PE10 tubing was removed allowing reperfusion. The lungs were reinflated and the chest wound closed layer by layer before extubation. […] Hearts were immediately frozen at −80° C. unless otherwise stated.
(§2) Western blot analysis. Total ventricular protein lysates were prepared as described previously [Bodart et al., 2002]. Left ventricles were homogenized in PBS containing a protease inhibitor cocktail (Roche Applied Science, Indianapolis, Ind., USA) and 1 mM sodium orthovanadate. Homogenates were incubated for 10 min on ice with an equal volume of lysis buffer (NaCl 300 mM, Tris-HCl 100 mM, 2% Triton X-100, 0.2% SDS, 50 mM NaF, 4 mM EDTA, 1 mM sodium orthovanadate and protein inhibitors, pH=7.5), and centrifuged at 14,000 g for 30 minutes at 4° C. The protein concentration of the su pernatant was determined by the bicinchoninic acid (BCA) protein assay (Pierce Biotechnology, Rockford, Ill., USA). Equal amounts (50 or 100 μg) of protein extracts were separated on 10% SDS-polyacrylamide gels and transferred electrophoretically to polyvinylidene difluoride (PVDF) membranes (Bio-Rad Laboratories, Hercules, Calif., USA) for immunoblotting. […] Antibody binding was detected by enhanced chemiluminescence using an alpha Imager™ (Alpha Innotech Corporation, San Leandro, Calif., USA). Quantification of the digital images obtained was performed using ImageQuant™ 5.2 software (Molecular Dynamics, Sunnyvale, Calif., USA).
(In general: In western blotting, separated proteins are transferred to a membrane and probed.)

Another assay has as its system Akt. The assay can be described thus: Western blot of left ventricle: phosphorylated Akt to total Akt. The protocol: as §1, §2
Setting [2] is: 6 h post-reperfusion, CD36^+/+ mice.
Where [3] appears, read: 6 h post-reperfusion, CD36^−/− mice.
Setting [4] is: 48 h post-reperfusion, CD36^+/+ mice.
[5] abbreviates: 48 h post-reperfusion, CD36^−/− mice.
Setting [6] is: 6 hours reperfusion, CD36^+/+ mice, p<0.01.
[7] abbreviates: 6 hours reperfusion, CD36^−/− mice, in words.
Setting [8] is: 48 hours reperfusion, genotype not printed in the sentence (FIG. 7D), in words.

Consider “HAIC-2MeDTrp-DLys-Trp-DPhe-Lys-NH2 [EP 80317]”, for which the “effect on plasma TG” value in assay [1] (6 or 48 hours following reperfusion, both CD36^+/+ and CD36^−/− mice, in words) is reported as “did not modulate”. Further, in assay [1] (6 hours after reperfusion, CD36-dependent (CD36^+/+ mice), p<0.05 vs vehicle), the “attenuation of plasma NEFA elevation” value is 29%. The Triglyceride came to 0.35 ± 0.04 mmol/L in assay [1] (setting [2]), 0.58 ± 0.16 mmol/L in assay [1] (setting [3]), 0.44 ± 0.03 mmol/L in assay [1] (setting [4]) and 0.55 ± 0.06 mmol/L in assay [1] (setting [5]). Moreover, the “Glycemia Post-Reperfusion” value in assay [1] (setting [2]) is given as 13.6 ± 1.2 (20) mmol/L; in assay [1] (setting [3]), 8.8 ± 0.6 (17) mmol/L. Also, the “Total Cholesterol” value is 1.4 ± 0.3 (4) mmol/L in assay [1] (setting [2]), 1.9 ± 0.1 (5) mmol/L in assay [1] (setting [3]), 1.5 ± 0.03 (6) mmol/L in assay [1] (setting [4]) and 2.5 ± 0.2 (4) mmol/L in assay [1] (setting [5]). Moreover, the “effect on plasma NEFA levels” value in assay [1] (48 hours after reperfusion, in words) is given as “no effect”. The “Glycemia Before Ischemia” value in assay [1] (CD36^+/+ mice) was 10.6 ± 0.4 (15) mmol/L; in assay [1] (CD36^−/− mice), 9.3 ± 0.5 (8) mmol/L. Also, the “increase of P-AMPK to total AMPK band density ratio” value with AMPK (setting [6]) was 121%. In the assay with AMPK (setting [7]), the “effect on P-AMPK/AMPK ratio” value is on record as “no effect”. In addition, the P-AMPK/AMPK density ratio result in the assay on AMPK (48 hours reperfusion, CD36^+/+ mice, in words) is listed as “tended to decrease”. In addition, the “effect on AMPK phosphoprotein signal” value in the assay with AMPK (setting [8]) is given as “no significant effect”. In addition, the “increase of P-Akt to total Akt band density ratio” value with Akt (setting [6]) is 57%. For the same substance, in the assay on Akt (setting [7]), the “effect on P-Akt/Akt ratio” value is on record as “no effect”. Further, in the assay on Akt (48 hours reperfusion, CD36^+/+ mice, p<0.01), the “increase of P-Akt/Akt density ratio” value stood at 89%. The “effect on Akt phosphoprotein signal” value with Akt (setting [8]) is on record as “no significant effect”.
